Source: patent publication US20150150246A1, “USE OF INSECT GROWTH REGULATORS IN COCKROACH CONTROL” (MCLAUGHLIN GORMLEY KING COMPANY, priority 2013, published 2015)
Read-outs that look alike come from different tables or passages of the source.

Tests used:
German cockroach males = details: cited from earlier work
German cockroaches [1] = details: male, German cockroach, in vivo, po
Method: Adult male German cockroaches were obtained directly from German cockroach colonies maintained in the laboratory after a brief exposure to CO2 to facilitate handling. Cohorts of similar age (˜11 weeks old), adult male cockroaches (˜300 individuals) were randomly selected and moved into holding containers (Lock&Lock containers, Lock&Lock Co. Ltd., Dallas, Tex., USA) using a pair of soft tissue forceps. Cockroaches were starved in holding containers for 48 hours. Following starvation, cockroaches were transferred into the fecal collection apparatus. The fecal collection apparatus consisted of two vertically connected holding containers (Lock&Lock Co. Ltd., Dallas, Tex., USA) separated by a mesh screen. Cockroaches were introduced into the upper compartment of the collection apparatus and fecal pellets were collected from the floor of the lower container. The floor of the lower container was sealed with aluminum foil to facilitate the removal of fecal pellets. […] Fecal pellets were collected weekly until a sufficient amount of faeces was obtained to achieve analytical quantification. Quantification of pyriproxyfen was made by standard high-performance liquid chromatography-mass spectrometry (HPLC-MS) developed for pyriproxyfen. […]

German cockroaches [2] = assay: Reproductive inhibition by harborages contaminated with pyriproxyfen-containing fecal pellets (secondary exposure); format: in vivo, German cockroach
cockroaches = assay: Efficacy of bait at different pyriproxyfen concentrations; details: in vivo
Method: In one embodiment, the bait comprises abamectin at 0.05% and pyriproxyfen at 0.5% by weight. Efficacy was observed from 0.05 to 1.0% of pyriproxyfen. No higher doses were tested due to physical changes to the matrix, but higher amounts could be used by modifying the matrix. Pyriproxyfen is non-repellent so biologically 1.0% is not an absolute upper concentration limit.

N#Cc1nn(-c2c(Cl)cc(C(F)(F)F)cc2Cl)c(N)c1[S+]([O-])C(F)(F)F (stereo not drawn) [fipronil]
mortality of German cockroach males (German cockroach males; 24-hour post-bait introduction, laboratory studies): 100%

abamectin
mortality of German cockroach males (German cockroach males; in 5 days, same conditions): 100%

CC(COc1ccc(Oc2ccccc2)cc1)Oc1ccccn1 (stereo not drawn) [pyriproxyfen]
portion of ingested pyriproxyfen present in the frass (German cockroaches [1]): ~60%
suppression of the reproductive output of exposed cockroaches (German cockroaches [2]; consumption of pyriproxyfen contaminated frass (secondary exposure)): 100%
suppression of reproductive maturation (German cockroaches [2]; fecal pellets deposited following consumption of pyriproxyfen): 100%
repellency (cockroaches): non-repellent
